Where two headings read alike, the source gives them in different places.
Experiments:
Assay in all cases: 10-day proliferation (CTG), equimolar Compound A + SPLAM (Example 4)
Assay type in all cases: cell-based
UMUC5 = conditions: single agent or 1:1 combo; for IC50: read-out: gIC50
Protocol: (§1) A 10-day proliferation assay was performed in a panel of 5 MTAP-deficient and 2 wild type non-small cell lung and bladder cancer cell lines. Optimal cell seeding for all cell lines was determined by assessing the growth over a range of seeding densities in a 384-well format to identify conditions that permitted proliferation for 10 days. Cells were then plated at the optimal seeding density and treated with 20-point, two-fold dilution series of Compound A, the splicing inhibitor sulfonamide (SPLAM), or an equimolar combination of Compound A and the SPLAM. Combinations tested included Compound A in combination with four structurally different SPLAMs. Concentrations tested for Compound A and each SPLAM alone or in combination ranged from 0.04 nM to 20,000 nM. A plate of cells was harvested at the time of compound addition to quantify the number of cells at the start of the combination (T0). For cell quantification, the harvested cells were lysed with Promega CellTiter-Glo (CTG) reagent according to the manufacturer's protocol and the chemiluminescent signal was detected on a Synergy Neo plate reader. CTG estimates cell number through detection of cellular ATP levels. Cells were incubated with the drug combinations at 37° C. with 5% CO2 for 10 days. Cells were then lysed with CTG and the chemiluminescent signal was measured.
(§2) CTG values obtained after the 10-day treatment were background subtracted and expressed as a percent of the T0 value. Data were plotted against compound concentration and fit with a four-parameter equation to generate dose response curves for each single agent and the equimolar combination. Growth ICx (gICx) values ranging from gIC30 to gIC100 were interpolated from the fitted curves. Synergistic growth inhibition was assessed by determination of Combination Index (CI) values at these various points across the titration using the mutually non-exclusive equation [Chou, 1983; Chou, 1981] shown below where A equals the gICx value of Compound A, B equals the gICx value of the SPLAM, and A+B or B+A equals the gICx value of the equimolar combination. A Combination Index value less than 1.0 was considered synergistic.

NCI-H838 = conditions: single agent or 1:1 combo; for IC50: Homo sapiens, read-out: gIC50
Protocol: as §1, §2

NCI-H520 = conditions: single agent or 1:1 combo; for IC50: Homo sapiens, read-out: gIC50
Protocol: as §1, §2

TCCSUP = conditions: single agent or 1:1 combo; for IC50: Homo sapiens, TCC-SUP, read-out: gIC50
Protocol: as §1, §2

SW900 = conditions: single agent or 1:1 combo; for IC50: Homo sapiens, read-out: gIC50
Protocol: as §1, §2

RT112/84 = conditions: single agent or 1:1 combo; for IC50: Homo sapiens, read-out: gIC50
Protocol: as §1, §2

UMUC11 = conditions: single agent or 1:1 combo; for IC50: read-out: gIC50
Protocol: as §1, §2

Nc1nc(=O)n(-c2ccccc2Cl)c2nc(C(F)(F)F)ccc12 [Compound A]
19.467 µM: gIC40 (TCCSUP; 10 days) | gIC40 (TCCSUP)
13.142 µM: gIC60 (UMUC5; 10 days) | gIC60 (UMUC5)
3.41 µM: IC50 (RT112/84; RT112/84, 240 h, 10 days) | IC50 (RT112/84; RT112/84)
420 nM: gIC30 (UMUC5; 10 days) | gIC30 (UMUC5)
12.951 µM: gIC60 (RT112/84; 10 days) | gIC60 (RT112/84)
1291 nM: gIC40 (UMUC5; 10 days) | gIC40 (UMUC5)
19.994 µM: gIC30 (SW900; 10 days) | gIC30 (SW900)
345 nM: gIC30 (RT112/84; 10 days) | gIC30 (RT112/84)
11.309 µM: gIC60 (NCI-H838; 10 days) | gIC60 (NCI-H838)
1111 nM: gIC40 (RT112/84; 10 days) | gIC40 (RT112/84)
102 nM: gIC30 (NCI-H838; 10 days) | gIC30 (NCI-H838)
20 µM: gIC70 (UMUC5; 10 days) | gIC100 (UMUC5; 10 days) | gIC70 (UMUC5) | gIC100 (UMUC5) | gIC70 (NCI-H838; 10 days) | gIC100 (NCI-H838; 10 days) | gIC70 (NCI-H838) | gIC100 (NCI-H838) | gIC30 (NCI-H520; 10 days) | gIC40 (NCI-H520; 10 days) | gIC60 (NCI-H520; 10 days) | gIC70 (NCI-H520; 10 days) | gIC100 (NCI-H520; 10 days) | IC50 (NCI-H520; NCI-H520, 240 h, 10 days) | IC50 (NCI-H520; NCI-H520) | gIC30 (NCI-H520) | gIC40 (NCI-H520) | gIC60 (NCI-H520) | gIC70 (NCI-H520) | gIC100 (NCI-H520) | gIC60 (TCCSUP; 10 days) | gIC70 (TCCSUP; 10 days) | gIC100 (TCCSUP; 10 days) | IC50 (TCCSUP; 240 h, 10 days) | IC50 (TCCSUP) | gIC60 (TCCSUP) | gIC70 (TCCSUP) | gIC100 (TCCSUP) | gIC40 (SW900; 10 days) | gIC60 (SW900; 10 days) | gIC70 (SW900; 10 days) | gIC100 (SW900; 10 days) | IC50 (SW900; SW900, 240 h, 10 days) | IC50 (SW900; SW900) | gIC40 (SW900) | gIC60 (SW900) | gIC70 (SW900) | gIC100 (SW900) | gIC70 (RT112/84; 10 days) | gIC100 (RT112/84; 10 days) | gIC70 (RT112/84) | gIC100 (RT112/84) | IC50 (UMUC11; 240 h, 10 days) | gIC30 (UMUC11; 10 days) | gIC40 (UMUC11; 10 days) | gIC60 (UMUC11; 10 days) | gIC70 (UMUC11; 10 days) | gIC100 (UMUC11; 10 days) | gIC30 (UMUC11) | gIC40 (UMUC11) | gIC60 (UMUC11) | gIC70 (UMUC11) | gIC100 (UMUC11) | IC50 (UMUC11)
189 nM: gIC40 (NCI-H838; 10 days) | gIC40 (NCI-H838)
0.594 µM: IC50 (NCI-H838; NCI-H838, 240 h, 10 days) | IC50 (NCI-H838; NCI-H838)
4.28 µM: IC50 (UMUC5; 240 h, 10 days) | IC50 (UMUC5)
14.461 µM: gIC30 (TCCSUP; 10 days) | gIC30 (TCCSUP)

Reference: patent publication US20260294915A1, “COMBINATION THERAPY COMPRISING A MAT2A INHIBITOR AND A TOPOISOMERASE INHIBITOR, A SPLICING INHIBITOR SULFONAMIDE, OR A KIF18 INHIBITOR” (IDEAYA BIOSCIENCES, INC., priority 2023, published 2026)
